Test results from patent US20250362286A1, “SCREENING MODELS AND METHODS OF CANCER TREATMENT” (The Regents of the University of California, priority 2022, published 2025).
“Also recorded” adds a separate entry of the source.

What was measured:
[1] = test system: MDAs; experiment: flow cytometry of CDH1+ MDA cells in 2D and 3D Collagen I densities; assay type: cell-based
Experimental: To determine whether induction of MET was specific to the HD Collagen I condition or generally applicable to all ISX9-treated cells in a 3D Collagen condition, CDH1^+ cells in 2D, and multiple 3D Collagen I densities were flow-sorted (1 mg/mL, 2.5 mg/mL, and 6 mg/mL Col1) (FIG. 4F, FIG. 4G).) FIG. 4F depicts fluorescence profiles of CDH1 in MDAs treated with vehicle or ISX9 for 7 days in 2D TC, LD Col1, MD Col1, or HD Col1 conditions. FIG. 4G depicts a flow cytometry analysis of CDH1^+ MDA cells treated with vehicle or ISX9 in 2D TC, LD Col1, MD Col1, or HD Col1.

[2] = test system: MDA-MB-231 cells; experiment: western blot of acetylation of histones H3 and H4; assay type: cell-based; settings: 2D- and 3D-treated cells, 24 hours
Text: (§1) Also identified was the fact that a similar increase in acetylation was found in patient-derived organoid models. […] Acetylation and deactylation of histones H3 and H4 are typically orchestrated by Histone Acetyltransferases (HATs), including the several HAT subfamilies, as well as HDACs (see, e.g., Marmorstein, R. et al. Cold Spring Harb. Perspect. Biol. 6, a018762 (2014)). Not wishing to be bound by any particular theory, Isx9 may bind directly to HATs and/or HDACs in order to activate histone acetylation and drive induction of MET and/or CSC differentiation.

[3] = test system: Notch-activated epicardium-derived cells (NECs); settings: after myocardial infarction; cited from earlier work
[4] = test system: MDA-MB-231s; experiment: CD24 mRNA expression in 2D (differentiation screening); assay type: cell-based
Experimental: FIG. 3H depicts relative CD24 mRNA expression. CD24 expression was an early indicator of response to ISX9 in 2D across several TNBC cell lines. Treatment screening of several different TNBC cell lines with ISX9 in 2D for 48h yielded four responders, as determined by CD24 mRNA expression (FIG. 3H).
These analogs were screened for their potential to differentiate MDA-MB-231s, yielding at least one new hit, CR-1 (˜98% similarity), which induced a ˜6-fold upregulation of CD24 at a concentration of 200 μM at 48h in 2D (FIG. 6).

[5] = test system: Notch pathway genes; experiment: RT-qPCR gene expression analysis of Notch target genes in MDAs; assay type: cell-based; settings: 24h in HD Col1, vs vehicle
Text: Also assessed was how the Notch pathway responded to ISX9 treatment. […] FIG. 3A depicts the results of a RT-qPCR gene expression analysis of Notch target genes in vehicle and Isx9 treated MDAs.

[6] = test system: MDA-MB-231; experiment: B-Catenin localization to cell-cell junctions; assay type: cell-based; settings: 48 hours, 2D-treated cells
[7] = test system: MDAs; experiment: CellTiter-Fluor metabolic activity assay; assay type: cell-based; settings: 2D, 10-40 μM
Text: (§2) FIG. 7C depicts the metabolic activity, cytotoxicity, and relative CD24 expression dose-response to ISX9.

[8] = once daily 16 mg/kg ip for several weeks, cited from earlier work
[9] = test system: MDAs; experiment: CytoTox-Fluor cytotoxicity assay; assay type: cell-based; settings: 2D, 1-40 μM
Text: as §2

[10] = test system: PIM-025 PDOs; experiment: western blot of E-Cadherin and Vimentin in PDOs; assay type: cell-based; settings: 6 days
Text: (§3) FIG. 8N depicts a western blot analysis of E-Cadherin and Vimentin in PIM-025 PDOs treated with vehicle or ISX9 for 6 days. FIG. 8O depicts a western blot analysis of E-Cadherin and Vimentin in PA-14-13 PDOs treated with vehicle or ISX9 for 6 days.

[11] = test system: PA-14-13 PDOs; experiment: western blot of E-Cadherin and Vimentin in PDOs; assay type: cell-based; settings: 6 days
Text: as §3

[12] = test system: MDAs and MDA-231-BrM2 (TNBC), Py8119 (Breast Cancer), HT-1080 (fibrosarcoma), Sk-HEP-1 (liver cancer), and R40P (PDAC) cells; experiment: phenotype screen for anti-invasive activity in the HD Col1 model system; assay type: cell-based; settings: HD Col1, 7 days of culture; all six cell lines
Text: In this example, it was explored whether isoxazole derivatives could similarly induce differentiation of CSCs occupying the clinically relevant notch-activated state conferred by the HD Col1 model system of Example 1 (Table 1, FIG. 1). […] FIG. 2 includes brightfield microscopy images of cancer cell lines at 7 days of culture in HD Col1 treated with vehicle or ISX9 (scale bar=250 μm).

[13] = test system: PIM025; experiment: western blot of acetylated H3/H4 in PDOs; assay type: cell-based; settings: patient-derived organoid model
Text: as §1

[14] = test system: PA-14-13; experiment: western blot of acetylated H3/H4 in PDOs; assay type: cell-based; settings: patient-derived organoid model
Text: as §1

SMILES: O=C(NC1CC1)c1cc(-c2cccs2)on1 [ISX9, Isoxazole 9]
- CDH1+ induction ([1]; 1 mg/mL and 2.5 mg/mL Col1, 7 days): unable to re-express CDH1^+to similar levels
- effect on CDH1+ cells ([1]; 2D, 7 days): small effect
- population of CDH1+ cells ([1]; HD (6 mg/mL) Col1, 7 days): highest population of CDH1^+ cells
- acetylation of histones H3 and H4 [2]: significant increase in acetylation of histones H3 and H4
- fibrosis and ventricular functional decline after MI [3]: failed to mitigate fibrosis or avert ventricular functional decline after MI
- CD24 mRNA expression (FC) ([4]; 48h): ~31.6
- CD24 mRNA dose-response ([4]; concentration range 1-40 μM): upregulation of CD24 mRNA
- expression of Notch pathway genes [5]: significantly increased
- B-Catenin localization to cell-cell junctions [6]: significant increase in B-Catenin localization
- metabolic activity [7]: decrease in metabolic activity
- tolerability (signs or symptoms) ([8]; 16 mg/kg): well-tolerated; also recorded: no signs or symptoms of lethargy, weight loss or decreased appetite
- serum biochemistry and hematology profiles [8]: normal
- cytotoxicity [9]: without any observable increase in cytotoxicity
- Vimentin expression (WB) [10]: no observed differences to Vimentin expression
- Vimentin expression (WB) [11]: no observed differences to Vimentin expression
- invasive capability [12]: significant abrogation of the invasive capability
- acetylated H3/H4 expression [13]: slight increase in acetylated H3/H4 expression
- acetylated H3/H4 expression [14]: large increase in acetylated H3/H4 expression
